In patent EP0410366A2, “Anthracycline derivatives” (BEHRINGWERKE Aktiengesellschaft, priority 1989, dated 1991):
Values after ≈ are worked out from the molar mass of the structure shown. Like-named read-outs stand apart in the source and are kept apart here.

Legend:
L 1210 = test: Proliferation test (MTT reduction), L 1210; type: cell-based, Maus; details: Mus musculus, read-out: IC₅₀ MTT L1210
Experimental: (§1) L 1210, A 549 oder HT 29 in exponentieller Wachstumsphase werden in einer Zelldichte von 5 x 10³ Zellen/ml in RPMI 1640 in einer 96 Well Mikrotiterplatte für 72 h mit unterschiedlichen Konzentrationen der Testsubstanz bei 37° C, 5 % CO₂ und 95 % relativer Luftfeuchte inkubiert. Kontrollexperimente erhalten anstelle der Testsubstanz lediglich Wachstumsmedium. Für jede Testsubstanz sowie für die Kontrolle werden 4fach Bestimmungen angesetzt. Nach 65 h Inkubation werden 50 µl einer MTT-Lösung (2.5 mg/ml in Phosphat-gepuffertem Kochsalz) zugegeben. In Gegenwart lebender Zellen wird MTT zu einem dunkelroten unlöslichen Formazanfarbstoff reduziert. Diese Reaktion ist nach 7 h (L 1210 Zellen) bzw. nach 24 h (A 549, HT 29 Zellen) beendet, und das überstehende Medium wird sorgfältig abgesaugt. Der unlösliche Farbstoff wird durch Zugabe von 100 µl DMSO aufgelöst und die Extinktion der so entstehenden Lösung anschließend für jedes Well in einem Multiscan Photometer 340 CC der Fa. Flow bei einer Wellenlänge von 492 nm vermessen.
(§2) Aus dem Verhältnis der Extinktionen behandelter und unbehandelter Zellen ergibt sich eine Dosis-Wirkungskurve, aus der die Konzentration, die gerade 50 % der Zellen (IC₅₀) abtötet, abgelesen werden kann. Für wiederholte Untersuchungen beträgt der Variationskoeffizient weniger als 15 % (Tabelle 1). Tabelle 1

A 549 = test: Proliferation test (MTT reduction), A 549; type: cell-based; details: Homo sapiens, read-out: IC₅₀ MTT A 549
Experimental: as §1, §2

HT 29 = test: Proliferation test (MTT reduction), HT 29; type: cell-based; details: Homo sapiens, read-out: IC₅₀ MTT HT 29
Experimental: as §1, §2

L 1210 Leukämiezellen = test: Cytotoxicity against L 1210 leukemia cells (stem cell assay, SCA; colony formation in soft agar); type: cell-based, Maus; details: Mus musculus
Experimental: Der Test wurde entsprechend der von Hamburger und Salmon beschriebenen Methodik mit den unten beschriebenen Modifikationen durchgeführt.
Konditioniertes Medium wurde durch McCoy 5A Medium ersetzt. Als Folge der hohen Klonierungsrate der L 1210 Leukämiezellen in Soft Agar wurde die Anzahl an Tumorzellen pro Platte auf 5 x 10² reduziert.
Die Zellen wurden mit unterschiedlichen Konzentrationen der Testsubstanz für 1 h bei 37° C inkubiert. Anschließend wurden die Zellen zweimal mit McCoy 5A Medium gewaschen und anschließend in einem Zwei-Schichten-Agar System als obere Schicht entsprechend der Methode von Hamburger und Salmon ausplatiert.
Zusätzliche Parallelexperimente wurden unter Verwendung einer kontinuierlichen Inkubationszeit durchgeführt, wobei unterschiedliche Konzentrationen der Testsubstanz der oberen Agarschicht vor Ausplatieren der Zellen zugemischt wurden.
Die Platten wurden in einem Brutschrank mit 5 % CO₂, 20 % 02 und 95 % relativer Luftfeuchte für 5-7 Tage inkubiert. Nach dieser Zeit wurden Kolonien mit einem Durchmesser von 60 µm mit Hilfe eines Invertoskopes gezählt.
Die Ergebnisse wurden angegeben als prozentualer Anteil der Kolonien in behandelten versus unbehandelten Gruppen. Der Variationskoeffizient bei wiederholten Experimenten war kleiner als 15 %.
Aus der Dosis-Wirkungskurve wurde die IC₅₀ für die kontinuierliche und einstündige Inkubation bestimmt (Tab. 1).

L 1210 Leukämie = type: in vivo; details: for opt. Dosis: dose with the largest antitumoral effect
Experimental: Methodik: Ascitesflüssigkeit wird unter sterilen Bedingungen DBA2 Mäusen (weiblich, 18-20 g) 7 Tage nach Implantation entnommen. Der Ascites wird dreimal mit PBS gewaschen, gezählt und auf eine Zellzahl von 10⁴ in 0.2 ml PBS eingestellt.
10⁴ Zellen, suspendiert in 0.2 ml PBS, werden anschließend DBF1 Mäusen (weiblich, 18-20 g) intravenös injiziert. 6 Tiere pro Gruppe werden für jede Substanzkonzentration bzw. als Kontrolle eingesetzt.
• a) Die Tiere werden am Tag 1 und 5 nach Injektion der Testsubstanz gewogen. Gewichtsverlust von mehr als 20 % am Tag 5 wird als Indikator einer toxischen Substanzwirkung angesehen. • b) Am Ende des Experimentes (Tod aller Tiere oder überlebende Tiere am Tag 60) wird die mittlere Überlebenszeit der Tiere in den jeweiligen Gruppen bestimmt, sofern am Tag 5 des Experimentes mindestens 65 % der Tiere noch gelebt hatten. Die mittlere Überlebenszeit wird ausschließlich für im Verlaufe des Experimentes sterbende Tiere bestimmt. Langzeit-überlebende (LTS) werden bei dieser Berechnung nicht berücksichtigt und gesondert aufgeführt.
Aus der mittleren Überlebenszeit (MSTt) der behandelten Gruppen sowie der Kontrollgruppen (MSTc) wird die antitumorale Wirksamkeit (T/C) für die jeweilige Substanzkonzentration in Prozent der unbehandelten Kontrolle entsprechend der folgenden Formel bestimmt: [formula]
T/C Werte größer als 125 % werden als Indikator einer signifikanten antitumoralen Wirksamkeit der Testsubstanz angesehen. Die Dosis, die den größten antitumoralen Effekt (optimale Dosierung) zeigte, wurde ermittelt. Tiere, die am Tag 60 des Experimentes noch leben, werden als Longterm-Survivors getrennt aufgeführt. Tabelle 2

[1] = L1210, read-out: IC₅₀ SCA L 1210 1 h
[2] = L 1210 iv, treatment iv, Q3D (Verbind. 1: 2x, Pirarubicin: 3x)

Structure (SMILES) | IC50 (L 1210; L1210, 72 h) [µg/mL] | IC50 (A 549; A549, 72 h) [µg/mL] | IC50 (HT 29; HT-29, 72 h) [µg/mL] | IC50 (L 1210 Leukämiezellen; [1]) [µg/mL] | opt. Dosis (L 1210 Leukämie; [2]) [mg/kg/inj] | other results
COc1cc(OC)cc(C(C)(C)OC(=O)N[C@H]2C[C@H](O[C@H]3C[C@](O)(C(=O)CO)Cc4c(O)c5c(c(O)c43)C(=O)c3c(OC)cccc3C5=O)O[C@@H](C)[C@@H]2O)c1 [Verbindung 3, 7-O-(3-(3 ,5′-Dimethoxy-α,α-dimethyl-benzyloxycarbonylamino)-2,3,6-tridesoxy-alpha-L-arabinohexopyranosyl)-adriamycinon] | 0.02 (≈ 0.0261 µM) | 0.04 (≈ 0.0522 µM) | 0.11 (≈ 0.144 µM) |  |  | 
COc1cc(OC)cc(C(C)(C)OC(=O)N[C@H]2C[C@H](O[C@H]3C[C@](O)(C(=O)CO)Cc4c(O)c5c(c(O)c43)C(=O)c3c(OC)cccc3C5=O)O[C@@H](C)[C@H]2OC2CCCCO2)c1 (stereo partly drawn) [Verbindung 1, 7-O-(3-(3 ,5′-Dimethoxy-α,α-dimethyl-benzyloxycarbonylamino)-4-O-tetrahydropyranyl-2,3,6-tridesoxy-alpha-L-lyxohexopyranosyl)-adriamycinon] | 0.027 (≈ 0.0318 µM) | 0.023 (≈ 0.0271 µM) | 0.04 (≈ 0.0471 µM) | 5.3 (≈ 6.24 µM) | 20 | zytostatische Wirksamkeit (L 1210 Leukämie; "in vivo" L 1210-Testmodell, compared with Doxorubicin or Tetrahydropyranyl-Doxorubicin): erheblich bessere; Effektivität toxisch (L 1210 Leukämie; animals per group with toxic effect, at optimal dose): 1/6; Effektivität T/C % (L 1210 Leukämie; at optimal dose, mean survival time treated vs control, L 1210 iv, treatment iv, Q3D (Verbind. 1: 2x, Pirarubicin: 3x)): 435%; Effektivität LTS (L 1210 Leukämie; long-term survivors at day 60, animals per group, at optimal dose): 5/6
COc1cc(OC)cc(C(C)(C)OC(=O)N[C@H]2C[C@H](O[C@H]3C[C@](O)(C(=O)CO)Cc4c(O)c5c(c(O)c43)C(=O)c3c(OC)cccc3C5=O)O[C@@H](C)[C@H]2O)c1 [Verbindung 2, 7-O-(3-(3 ,5′-Dimethoxy-α,α-dimethyl-benzyloxycarbonylamino)-2,3,6-tridesoxy-alpha-L-lyxohexopyranosyl)-adriamycinon] | 0.11 (≈ 0.144 µM) | 0.11 (≈ 0.144 µM) | 0.13 (≈ 0.17 µM) | 6.4 (≈ 8.36 µM) |  | 
COc1cccc2c1C(=O)c1c(O)c3c(c(O)c1C2=O)C[C@@](O)(C(=O)CO)C[C@@H]3O[C@H]1C[C@H](N)[C@H](O[C@@H]2CCCCO2)[C@H](C)O1 [Pirarubicin, 4′-O-THP-Doxorubicin, reference compound] |  |  |  |  | 4.7 | IC50 (L 1210 Leukämiezellen; L1210, 1 h incubation at 37° C, colonies counted after 5-7 days, read-out: IC₅₀ SCA L 1210 1 h): 0.01 µg/mL (≈ 0.0159 µM); IC50 (L 1210 Leukämiezellen; L1210, continuous incubation, colonies counted after 5-7 days, read-out: IC₅₀ SCA L 1210 cont): 0.004 µg/mL (≈ 0.00637 µM); IC50 (L 1210; L1210, 72 h incubation): 0.004 µg/mL (≈ 0.00637 µM); IC50 (A 549; A549, 72 h incubation): 0.15 µg/mL (≈ 0.239 µM); IC50 (HT 29; HT-29, 72 h incubation): 0.016 µg/mL (≈ 0.0255 µM); Effektivität T/C % (L 1210 Leukämie; iv): 178%
COc1cc(OC)cc(C(C)(C)OC(=O)N[C@H]2C[C@H](O[C@H]3C[C@](O)(C(C)=O)Cc4c(O)c5c(c(O)c43)C(=O)c3c(OC)cccc3C5=O)O[C@@H](C)[C@H]2O)c1 [Verbindung 4, 7-O-(3-(3 ,5′-Dimethoxy-α,α-dimethyl-benzyloxycarbonylamino)-2,3,6-tridesoxy-alpha-L-lyxohexopyranosyl)-daunomycinon] | 0.14 (≈ 0.187 µM) | 0.13 (≈ 0.173 µM) | 0.13 (≈ 0.173 µM) | 4.5 (≈ 6 µM) |  | 
CC[C@@]1(O)C[C@H](O[C@H]2C[C@H](NC(=O)OC(C)(C)c3cc(OC)cc(OC)c3)[C@H](O)[C@H](C)O2)c2c(O)c3c(c(O)c2[C@H]1O)C(=O)c1cccc(O)c1C3=O [Verbindung 8, 7-O-(3-(3,5-Dimethoxy-alpha,alpha-dimethyl-benzyloxycarbonylamino)-2,3,6-tridesoxy-alpha-L-lyxohexopyranosyl)-β-rhodomycinon] | 0.004 (≈ 0.00542 µM) | < 0.004 | < 0.004 | 0.47 (≈ 0.637 µM) |  | 
